The assay concerns the target recombinant Mcl-1 (residues 172-327) (Homo sapiens (Human), UniProt Q07820). As to the kind of experiment: Bak peptide binding assay, fluorescence polarization anisotropy competition (FITC-Bak), Mcl-1.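 Also: displacement of labeled Bak peptide read by fluorescence anisotropy, 10-point threefold dilutions from 20 µM top dose in 5% DMSO, 90 min incubation at room temperature.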 A general note: Fluorescence polarisation rises when a labelled molecule tumbles more slowly, as on binding a larger partner.
Setting [1] is: Table 3, binned ranges, FITC-Bak peptide 10 nM, Mcl-1 14 nM, read-out: Ki for inhibition of Mcl-1.

Read-outs that look alike come from different tables or passages of the source.

recombinant Mcl-1 (residues 172-327), sequence (Q07820 172-327): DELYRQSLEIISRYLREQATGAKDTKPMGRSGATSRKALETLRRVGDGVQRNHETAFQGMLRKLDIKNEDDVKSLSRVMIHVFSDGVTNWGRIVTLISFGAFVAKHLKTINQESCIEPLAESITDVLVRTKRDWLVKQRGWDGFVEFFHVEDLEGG

By Ki is commonly meant a measure of affinity in units of concentration, obtained from inhibition or displacement. As for `CCC(C(=O)O)n1cc(CCCOc2cc(C)c(Cl)c(C)c2)c2ccccc21` (racemic) [Example 52, (±)-2-(3-(3-(4-chloro-3,5-dimethylphenoxy)propyl)-1H-indol-1-yl)butanoic acid], under setting [1], the inhibition constant (Ki) fell in the range of 501 to 999 nM.

Consider `Cc1cc(OCCCc2cn(C(C(=O)O)c3ccccc3)c3ccccc23)cc(C)c1Cl` (racemic) [Example 53, (±)-2-(3-(3-(4-chloro-3,5-dimethylphenoxy)propyl)-1H-indol-1-yl)-2-phenylacetic acid], for which the inhibition constant Ki under setting [1] fell in the range of 501 to 999 nM. The same measure, in the same setting: for `Cc1cc(OCCCc2cn(C(C)CC(=O)O)c3ccccc23)cc(C)c1Cl` (racemic) [Example 55, (±)-3-(3-(3-(4-chloro-3,5-dimethylphenoxy)propyl)-1H-indol-1-yl)butanoic acid] the value was 501 to 999 nM; for `Cc1cc(OCCCc2cn(C(CC(=O)O)c3ccccc3)c3ccccc23)cc(C)c1Cl` (racemic) [Example 56, (±)-3-(3-(3-(4-chloro-3,5-dimethylphenoxy)propyl)-1H-indol-1-yl)-3-phenylpropanoic acid], 501 to 999 nM. Regarding `Cc1cc(OCCCc2cn(C(C)C(=O)NS(C)(=O)=O)c3ccccc23)cc(C)c1Cl` (racemic) [Example 59, (±)-2-(3-(3-(4-chloro-3,5-dimethylphenoxy)propyl)-1H-indol-1-yl)-N-(methylsulfonyl)propanamide], the Ki under setting [1] lay in the range of 501 to 999 nM. Same read-out and setting: next, `CCC(C(=O)NS(C)(=O)=O)n1cc(CCCOc2cc(C)c(Cl)c(C)c2)c2ccccc21` (racemic) [Example 60, (±)-2-(3-(3-(4-chloro-3,5-dimethylphenoxy)propyl)-1H-indol-1-yl)-N-(methylsulfonyl)butanamide]: 501 to 999 nM; `O=C(O)Cc1cn(CCCOc2cccc3ccccc23)c2ccccc12` [Example 1, 2-(1-(3-(naphthalen-1-yloxy)propyl)-1H-indol-3-yl)acetic acid]: 1000 to 9990 nM; `O=C(O)Cc1cn(CCCOc2ccc3ccccc3c2)c2ccccc12` [Example 2, 2-(1-(3-(naphthalen-2-yloxy)propyl)-1H-indol-3-yl)acetic acid]: 10000 to 50000 nM.

Regarding `Cc1cc(OCCCn2cc(CC(=O)NS(C)(=O)=O)c3ccccc32)cc(C)c1Cl` [Example 4, 2-(1-(3-(4-chloro-3,5-dimethylphenoxy)propyl)-1H-indol-3-yl)-N-(methylsulfonyl)acetamide], the Ki under setting [1] fell in the range of 1000 to 9990 nM.

As for `Cc1cc(OCCCc2cn(CC(=O)O)c3ccccc23)cc(C)c1Cl` [Example 5, 2-(3-(3-(4-chloro-3,5-dimethylphenoxy)propyl)-1H-indol-1-yl)acetic acid], the Ki under setting [1] fell in the range of 501 to 999 nM. Same read-out and setting: next, `O=C(O)Cn1cc(CCCOc2cccc3ccccc23)c2ccccc21` [Example 6, 2-(3-(3-(naphthalen-1-yloxy)propyl)-1H-indol-1-yl)acetic acid]: 1000 to 9990 nM. For `O=C(O)Cn1cc(CCCOc2cccc3ccccc23)c2ccc(Cl)cc21` [Example 8, 2-(6-chloro-3-(3-(naphthalen-1-yloxy)propyl)-1H-indol-1-yl)acetic acid], under setting [1], the Ki lay in the range of 1000 to 9990 nM.

As for `Cc1cc(OCCCc2cn(CC(=O)O)c3cccc(Cl)c23)cc(C)c1Cl` [Example 9, 2-(4-chloro-3-(3-(4-chloro-3,5-dimethylphenoxy)propyl)-1H-indol-1-yl)acetic acid], the Ki under setting [1] was 501 to 999 nM. Still for that read-out and setting: next, `O=C(O)Cn1cc(CCCOc2cccc3ccccc23)c2c(Cl)cccc21` [Example 10, 2-(4-chloro-3-(3-(naphthalen-1-yloxy)propyl)-1H-indol-1-yl)acetic acid]: 1000 to 9990 nM; `O=C(O)CCn1cc(CCCOc2cccc3ccccc23)c2ccccc21` [Example 11, 3-(3-(3-(naphthalen-1-yloxy)propyl)-1H-indol-1-yl)propanoic acid]: 1000 to 9990 nM; `Cc1cc(OCCCc2cn(CCC(=O)O)c3cc(Cl)ccc23)cc(C)c1Cl` [Example 13, 3-(6-chloro-3-(3-(4-chloro-3,5-dimethylphenoxy)propyl)-1H-indol-1-yl)propanoic acid]: 101 to 299 nM.

For `O=C(O)CCn1cc(CCCOc2cccc3ccccc23)c2c(Cl)cccc21` [Example 16, 3-(4-chloro-3-(3-(naphthalen-1-yloxy)propyl)-1H-indol-1-yl)propanoic acid], the Ki under setting [1] was 1000 to 9990 nM.

Take `Cc1cc(OCC(C)Cc2cn(CCC(=O)O)c3ccccc23)cc(C)c1Cl` (stereo not shown) [Example 17, 3-(3-(3-(4-chloro-3,5-dimethylphenoxy)-2-methylpropyl)-1H-indol-1-yl)propanoic acid]: under setting [1], the Ki was 1000 to 9990 nM. Consider `Cc1cc(OCCCc2cn(CCC(=O)NS(C)(=O)=O)c3ccccc23)cc(C)c1Cl` [Example 18, 3-(3-(3-(4-chloro-3,5-dimethylphenoxy)propyl)-1H-indol-1-yl)-N-(methylsulfonyl)propanamide], for which the Ki under setting [1] lay within 1000 to 9990 nM. On the same count and under the same terms, for `CS(=O)(=O)NC(=O)CCn1cc(CCCOc2cccc3ccccc23)c2ccccc21` [Example 19, 3-(3-(3-(naphthalen-1-yloxy)propyl)-1H-indol-1-yl)-N-(methylsulfonyl)propanamide] the value was 1000 to 9990 nM; for `CS(=O)(=O)NC(=O)CCn1cc(CCCOc2cccc3ccccc23)c2ccc(Cl)cc21` [Example 21, 3-(6-chloro-3-(3-(naphthalen-1-yloxy)propyl)-1H-indol-1-yl)-N-(methylsulfonyl)propanamide], 501 to 999 nM; for `CS(=O)(=O)NC(=O)CCn1cc(CCCOc2cccc3ccccc23)c2c(Cl)cccc21` [Example 23, 3-(4-chloro-3-(3-(naphthalen-1-yloxy)propyl)-1H-indol-1-yl)-N-(methylsulfonyl)propanamide], 1000 to 9990 nM.

On to `CS(=O)(=O)NC(=O)Cn1cc(CCCOc2cccc3ccccc23)c2ccccc21` [Example 24, N-(methylsulfonyl)-2-(3-(3-(naphthalen-1-yloxy)propyl)-1H-indol-1-yl)acetamide], for which the Ki under setting [1] was 1000 to 9990 nM.

With `CS(=O)(=O)NC(=O)Cn1cc(CCCOc2cccc3ccccc23)c2c(Cl)cccc21` [Example 28, 2-(4-chloro-3-(3-(naphthalen-1-yloxy)propyl)-1H-indol-1-yl)-N-(methylsulfonyl)acetamide], under setting [1], the Ki was in the range of 1000 to 9990 nM. On the same count and under the same terms, for `Cc1cc(OCCCc2cn(CCC(=O)O)c3c(Br)cccc23)cc(C)c1Cl` [Example 29, 3-(7-bromo-3-(3-(4-chloro-3,5-dimethylphenoxy)propyl)-1H-indol-1-yl)propanoic acid] the value was 301 to 500 nM; for `Cc1cc(OCCCc2cn(CCC(=O)O)c3c(-c4c(COc5ccccc5)nn(C)c4C)cccc23)cc(C)c1Cl` [Example 30, 3-(3-(3-(4-chloro-3,5-dimethylphenoxy)propyl)-7-(1,5-dimethyl-3-(phenoxymethyl)-1H-pyrazol-4-yl)-1H-indol-1-yl)propanoic acid], 101 to 299 nM. On the same count and under the same terms, for `Cc1cc(OCCCc2cn(CCC(=O)O)c3c(-c4ccccc4)cccc23)cc(C)c1Cl` [Example 31, 3-(3-(3-(4-chloro-3,5-dimethylphenoxy)propyl)-7-phenyl-1H-indol-1-yl)propanoic acid] the value was 301 to 500 nM; for `Cc1cc(OCCCc2cn(CCC(=O)O)c3c(-c4cccnc4)cccc23)cc(C)c1Cl` [Example 33, 3-(3-(3-(4-chloro-3,5-dimethylphenoxy)propyl)-7-(pyridin-3-yl)-1H-indol-1-yl)propanoic acid], 501 to 999 nM. The same measure, in the same setting: for `Cc1cc(OCCCc2cn(CCC(=O)O)c3c(-c4cc[nH]n4)cccc23)cc(C)c1Cl` [Example 35, 3-(3-(3-(4-chloro-3,5-dimethylphenoxy)propyl)-7-(1H-pyrazol-3-yl)-1H-indol-1-yl)propanoic acid] the value was 101 to 299 nM; for `Cc1cc(OCCCc2cn(CCC(=O)O)c3c(-c4cn[nH]c4)cccc23)cc(C)c1Cl` [Example 36, 3-(3-(3-(4-chloro-3,5-dimethylphenoxy)propyl)-7-(1H-pyrazol-4-yl)-1H-indol-1-yl)propanoic acid], 101 to 299 nM. On to `Cc1cc(OCCCc2cn(CCC(=O)NS(=O)(=O)c3ccccc3)c3cc(Cl)ccc23)cc(C)c1Cl` [Example 37, 3-(6-chloro-3-(3-(4-chloro-3,5-dimethylphenoxy)propyl)-1H-indol-1-yl)-N-(phenylsulfonyl)propanamide], for which the Ki lay in the range of 101 to 299 nM. On to `Cc1cc(OCCCc2cn(CCC(=O)NS(=O)(=O)Cc3ccccc3)c3cc(Cl)ccc23)cc(C)c1Cl` [Example 38, N-(benzylsulfonyl)-3-(6-chloro-3-(3-(4-chloro-3,5-dimethylphenoxy)propyl)-1H-indol-1-yl)propanamide], for which the Ki under setting [1] is 301 to 500 nM.

As for `Cc1cc(OCCCc2cn(CCC(=O)NS(=O)(=O)C3CC3)c3cc(Cl)ccc23)cc(C)c1Cl` [Example 39, 3-(6-chloro-3-(3-(4-chloro-3,5-dimethylphenoxy)propyl)-1H-indol-1-yl)-N-(cyclopropylsulfonyl)propanamide], the Ki under setting [1] lay in the range of 301 to 500 nM.

Consider `Cc1cc(OCCCc2cn(CCC(=O)NS(=O)(=O)c3ccc(Oc4ccccc4)cc3)c3cc(Cl)ccc23)cc(C)c1Cl` [Example 40, 3-(6-chloro-3-(3-(4-chloro-3,5-dimethylphenoxy)propyl)-1H-indol-1-yl)-N-((4-phenoxyphenyl)sulfonyl)propanamide], for which the Ki under setting [1] was 301 to 500 nM. Turning to `COc1ccc(Oc2ccc(S(=O)(=O)NC(=O)CCn3cc(CCCOc4cc(C)c(Cl)c(C)c4)c4ccc(Cl)cc43)cc2)cc1` [Example 41, 3-(6-chloro-3-(3-(4-chloro-3,5-dimethylphenoxy)propyl)-1H-indol-1-yl)-N-((4-(4-methoxyphenoxy)phenyl)sulfonyl)propanamide], the Ki under setting [1] is 101 to 299 nM. The same measure, in the same setting: next, `Cc1cc(OCCCc2c(C)n(CCC(=O)NS(C)(=O)=O)c3cc(Cl)ccc23)cc(C)c1Cl` [Example 46, 3-(6-chloro-3-(3-(4-chloro-3,5-dimethylphenoxy)propyl)-2-methyl-1H-indol-1-yl)-N-(methylsulfonyl)propanamide]: at most 100 nM. The same measure, in the same setting: next, `Cc1cc(OCCCc2c(C#N)n(CCC(=O)O)c3ccccc23)cc(C)c1Cl` [Example 48, 3-(3-(3-(4-chloro-3,5-dimethylphenoxy)propyl)-2-cyano-1H-indol-1-yl)propanoic acid]: 501 to 999 nM.

The record behind these values is patent US10954193B2 (Vanderbilt University, priority 2013, dated 2021).
